Publication PMC10287695, “Non-covalent inhibitors of thioredoxin glutathione reductase with schistosomicidal activity in vivo” (Nature Communications, 2023)
Where two headings read alike, the source gives them in different places. Marks after values point to notes of the source that are not given here.

Columns and labels:
Human TrxR1 = biological target: T1, Human TrxR1 (Homo sapiens, UniProt Q16881); assay: Human TrxR1 enzyme inhibition (DTNB reduction); format: biochemical; settings: for % inhibition: hsTrxR; for % inhibition / hsTrxR % inhibition: 15 minutes pre-incubation; for Human TrxR1 IC50 (µM) or inhibition (%) at 66.7 µM: inhibition: 6 h preincubation
T1 construct: made in house
T1 sequence (Q16881 1-499 isoform Q16881-5): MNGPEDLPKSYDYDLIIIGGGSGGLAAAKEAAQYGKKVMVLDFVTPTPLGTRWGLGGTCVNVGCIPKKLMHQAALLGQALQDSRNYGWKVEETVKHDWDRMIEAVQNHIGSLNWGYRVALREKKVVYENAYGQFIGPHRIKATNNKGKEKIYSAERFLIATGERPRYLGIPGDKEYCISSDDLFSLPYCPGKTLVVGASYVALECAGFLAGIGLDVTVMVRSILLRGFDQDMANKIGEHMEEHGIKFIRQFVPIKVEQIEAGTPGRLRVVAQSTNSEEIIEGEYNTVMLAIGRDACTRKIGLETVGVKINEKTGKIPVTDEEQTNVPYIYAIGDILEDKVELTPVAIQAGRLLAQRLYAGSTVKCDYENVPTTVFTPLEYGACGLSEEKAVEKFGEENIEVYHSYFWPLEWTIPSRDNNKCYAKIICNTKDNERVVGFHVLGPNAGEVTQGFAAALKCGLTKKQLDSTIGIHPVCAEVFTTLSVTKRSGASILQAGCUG
Experimental: Recombinant TGR, human TrxR1, B. malayi (Bm)TrxR and human GR proteins were expressed and purified as described[20],[69],[79]. The codon optimized sequence for P. falciparum (PfTrxR, https://www.ncbi.nlm.nih.gov/protein/CAA60574.1/) with an N-terminal 6-His tag was synthesized and inserted into pET15b (GenScript) and expressed in BL21 (DE3) cells and purified as described for human GR[20]. TGR and TrxR enzyme inhibition assays were performed in triplicate at 25 °C as described[20] in 0.1 M potassium phosphate (pH 7.4), 10 mM EDTA, 100 µM NADPH and 0.01% Tween-20. […] The reaction was started with addition of an equal volume of DTNB (6 mM) and NADPH (100 µM) and the increase in A412 during the first 3 min was recorded. […] The reaction was preincubated for 15 min. Activity was initiated with the addition of 1 mM GSSG and 100 μM NADPH and initial rates of NADPH oxidation were monitored at 340 nm. The reactions were done in triplicate. The IC50 was calculated in GraphPad Prism.

[1] = system: S. mansoni newly transformed schistosomula (NTS); assay: Schistosomicidal activity ex vivo, NTS (Cell Titer Glo); format: cell-based; settings: for LD50 ex vivo S. mansoni NTS: 24 h exposure, Cell TiterGlo; for viability at 0.5 µM / viability at 1 µM / viability at 5 µM / viability at 10 µM / viability at 20 µM / viability at 30 µM: Schistosoma mansoni
Experimental: Oncomelania hupensis subsp. hupensis, Chinese strain, infected with S. japonicum, Chinese strain, and Biomphalaria glabrata, strain NMRI, infected with S. mansoni, strain NMRI, were provided by the NIAID Schistosomiasis Resource Center for distribution through BEI Resources, NIAID, NIH. After infections were patent, snails were exposed to bright light for 1 hr to obtain cercariae. Cercariae were mechanically transformed to schistosomula. Briefly, cercariae were placed on ice for 30 min and then centrifuged at 350 × g for 10 mins. The supernatant was decanted and 2 ml of serum-free M199 medium was added to cercarial pellets and vortexed for 1 min until cercarial tails were detached. NTS were purified by layering on 4 °C Percoll gradient suspension containing Eagle’s minimum essential medium, penicillin-streptomycin (10,000 U per ml penicillin/10,000 U per ml streptomycin), and 1 M HEPES in 0.85% NaCl with cercariae suspension and centrifuged at 500 × g for 15 min. Cercarial pellets were resuspended and washed thrice in serum-free M199 medium and collected at 100 × g for 5 min. NTS (240) were transferred to U-bottom 96 well assay plates containing 200 µl of M199 medium supplemented with 5.5 mM D-glucose, penicillin-streptomycin and 5% heat inactivated fetal bovine serum and incubated at 37 °C in a 5% CO2 incubator overnight.
DMSO formulated compounds were diluted with phenol red free M199 medium or RPMI medium for NTS or juvenile and adult worms, respectively, at <1% DMSO final concentrations. NTS, juvenile and adult worms from overnight cultures were tested against compounds in triplicate. Controls were treated with DMSO alone or 5 µM AF as a positive control in appropriate medium. Worm viability was assessed at 24 or 72 h by measuring ATP content of worms using Cell Titer Glo Assay (Promega) as described. Schistosome viabilities in the presence of the compounds were assessed using this formula: % Viability = Averages of Test / Averages of DMSO Control x 100.

Human GR = biological target: T2, Human GR (Homo sapiens, UniProt P00390); assay: Human GR enzyme inhibition (GSSG reduction, NADPH oxidation); format: biochemical; settings: for % inhibition: hGR; for inhibition at 15 µM / inhibition at 30 µM / inhibition at 66.7 µM: read-out: hGR % inhibition
T2 construct: made in house
T2 sequence (P00390 44-522): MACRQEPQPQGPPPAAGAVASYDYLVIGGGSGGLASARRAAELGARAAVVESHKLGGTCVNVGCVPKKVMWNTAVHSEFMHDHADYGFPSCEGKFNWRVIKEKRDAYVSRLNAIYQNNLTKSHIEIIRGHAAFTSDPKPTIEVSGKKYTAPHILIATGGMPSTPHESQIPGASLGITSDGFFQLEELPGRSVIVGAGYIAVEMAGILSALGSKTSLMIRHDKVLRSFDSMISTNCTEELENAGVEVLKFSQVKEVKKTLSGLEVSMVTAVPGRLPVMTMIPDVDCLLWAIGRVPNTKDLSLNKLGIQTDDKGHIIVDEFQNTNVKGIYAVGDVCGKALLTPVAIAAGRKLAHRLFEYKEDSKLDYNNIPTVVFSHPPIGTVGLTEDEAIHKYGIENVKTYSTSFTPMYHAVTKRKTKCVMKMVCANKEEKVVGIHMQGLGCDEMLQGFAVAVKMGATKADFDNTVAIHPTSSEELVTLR

[2] = 15 minutes pre-incubation, compound 15 µM
[3] = 15 minutes pre-incubation, compound 30 µM
[4] = 15 minutes pre-incubation, compound 66.7 µM
[5] = 6 hours pre-incubation, compound 15 µM
[6] = 6 hours pre-incubation, compound 30 µM
[7] = 6 hours pre-incubation, compound 66.7 µM
[8] = 15 minutes pre-incubation, 15 µM
[9] = 15 minutes pre-incubation, 30 µM
[10] = 15 minutes pre-incubation, 66.7 µM
[11] = 6 hours pre-incubation, 66.7 µM

CC(=O)OC[C@H]1O[C@@H]([S-])[C@H](OC(C)=O)[C@@H](OC(C)=O)[C@@H]1OC(C)=O.CCP(CC)CC.[Au+] [AF, auranofin, reference compound]
IC50 (Human TrxR1; 15 min preincubation (enzyme + 100 µM NADPH + compound), read-out: Human TrxR1 IC50): 20 nM | LD50 ex vivo S. mansoni NTS [1]: 0.31 ± 0.02 µM | % viability ([1]; S. mansoni NTS, Conc. 0.25 µM): 60.0497% | % viability ([1]; S. mansoni NTS, Conc. 0.5 µM): 36.3261% | % viability ([1]; S. mansoni NTS, Conc. 1 µM): 18.3613% | % viability ([1]; S. mansoni NTS, Conc. 2 µM): 10.7245% | % viability ([1]; S. mansoni NTS, Conc. 5 µM): 0.4904%

Cc1oc(-c2ccccc2)nc1CN[C@@H]1C[C@@H]2C[C@H]([C@H]1C)C2(C)C [C3]
% inhibition (Human TrxR1; compound 15 µM): 11.8305% | % inhibition (Human TrxR1; compound 30 µM): 16.5848% | % inhibition (Human TrxR1; compound 66.7 µM): 23.0303% | % inhibition (Human GR; [2]): -2.234% | % inhibition (Human GR; [3]): -5.497% | % inhibition (Human GR; [4]): -7.805% | % inhibition (Human GR; [5]): -0.8033% | % inhibition (Human GR; [6]): -0.8345% | % inhibition (Human GR; [7]): -0.3955% | % viability ([1]; S. mansoni NTS, Conc. 5 µM): 6.85% | % viability ([1]; S. mansoni NTS, Conc. 15 µM): 0.6968% | % viability ([1]; S. mansoni NTS, Conc. 30 µM): 0.5581% | % viability ([1]; S. mansoni NTS, Conc. 50 µM): 0.6054%

Cc1oc(-c2ccc3ccccc3c2)nc1CNC1CCCCCC1 [C5]
% inhibition (Human TrxR1; compound 15 µM): 4.223% | % inhibition (Human TrxR1; compound 30 µM): 2.584% | % inhibition (Human TrxR1; compound 66.7 µM): 4.769% | % inhibition (Human GR; [2]): -0.1784% | % inhibition (Human GR; [3]): -0.6429% | % inhibition (Human GR; [4]): -2.462% | % inhibition (Human GR; [5]): -0.4334% | % inhibition (Human GR; [6]): -1.271% | % inhibition (Human GR; [7]): -0.3907% | % viability ([1]; S. mansoni NTS, Conc. 1 µM): 80.9812% | % viability ([1]; S. mansoni NTS, Conc. 5 µM): 52.5668% | % viability ([1]; S. mansoni NTS, Conc. 15 µM): 62.9498% | % viability ([1]; S. mansoni NTS, Conc. 35 µM): 0.09782% | % viability ([1]; S. mansoni NTS, Conc. 50 µM): 0.07949%

C[C@@H]1[C@H]2C[C@@H](C[C@H]1NCc1nc3ccccc3n1C)C2(C)C [C12]
hsTrxR % inhibition (Human TrxR1; 15 µM): 0.08203% | hsTrxR % inhibition (Human TrxR1; 30 µM): 0.1317% | hsTrxR % inhibition (Human TrxR1; 66.7 µM): 0.4216% | hGR % inhibition (Human GR; [8]): -0.9179% | hGR % inhibition (Human GR; [9]): -2.193% | hGR % inhibition (Human GR; [10]): -0.3071% | hGR % inhibition (Human GR; 6 hours pre-incubation, 15 µM): -3.5243% | hGR % inhibition (Human GR; 6 hours pre-incubation, 30 µM): -2.022% | hGR % inhibition (Human GR; [11]): -0.874% | % viability ([1]; S. mansoni NTS, 5 µM, relative to Worm + M199 control): 95.6217% | % viability ([1]; S. mansoni NTS, 15 µM, relative to Worm + M199 control): 91.9573% | % viability ([1]; S. mansoni NTS, 30 µM, relative to Worm + M199 control): 88.4326% | % viability ([1]; S. mansoni NTS, 50 µM, relative to Worm + M199 control): 85.8655%

C[C@@H]1[C@H]2C[C@@H](C[C@H]1NCc1cc(-c3ccccc3)[nH]n1)C2(C)C [Compound 11]
Human GR (inhibition at 66.7 µM) (Human GR; 66.7 µM): n.i. | inhibition at 15 µM (Human GR; [8]): -0.832% | inhibition at 30 µM (Human GR; [9]): -1.45% | inhibition at 66.7 µM (Human GR; [10]): -1.01% | inhibition at 15 µM (Human GR; 6 hours pre-incubation, 15 µM): -0.778% | inhibition at 30 µM (Human GR; 6 hours pre-incubation, 30 µM): -1.99% | inhibition at 66.7 µM (Human GR; [11]): -2.81% | LD50 ex vivo S. mansoni NTS [1]: >50^a µM

C[C@@H]1N=C(c2ccccc2Cl)c2cc([N+](=O)[O-])ccc2NC1=O [MZM, meclonazepam, reference compound]
Human TrxR1 IC50 (µM) or inhibition (%) at 66.7 µM: inhibition (Human TrxR1; 66.7 µM): n.i.^e | LD50 ex vivo S. mansoni NTS [1]: 13.7 ± 0.87 µM | viability at 0.5 µM [1]: 93.3% | viability at 1 µM [1]: 87.2% | viability at 5 µM [1]: 64.8% | viability at 10 µM [1]: 57.8% | viability at 20 µM [1]: 43.9% | viability at 30 µM [1]: 35.2%

O=C(C1CCCCC1)N1CC(=O)N2CCc3ccccc3C2C1 (centres unmarked) [PZQ, praziquantel]
Human TrxR1 IC50 (µM) or inhibition (%) at 66.7 µM: inhibition (Human TrxR1; 66.7 µM): n.i.^e | LD50 ex vivo S. mansoni NTS [1]: 27.1 ± 2.27 µM | viability at 20 µM [1]: 58.2% | viability at 0.5 µM ([1]; S. mansoni NTS, Conc. 0.5 µM, read-out: % viability): 94.3% | viability at 1 µM ([1]; S. mansoni NTS, Conc. 1 µM, read-out: % viability): 91.8% | viability at 5 µM ([1]; S. mansoni NTS, Conc. 5 µM, read-out: % viability): 85.6% | viability at 10 µM ([1]; S. mansoni NTS, Conc. 10 µM, read-out: % viability): 71.9% | viability at 30 µM ([1]; S. mansoni NTS, Conc. 30 µM, read-out: % viability): 35.8%
